# Measurements reported in patent US7655396B1, “Methods for detecting receptor modulator activity” (Allergan, Inc., priority 2006, dated 2010).
# “Also recorded” adds a separate entry of the source.
# Target: T1, mouse alpha 2B receptor (m α2B) (Mus musculus, UniProt P30545)
# T1 construct: expressed in transfected cells
# T1 sequence (P30545 1-453): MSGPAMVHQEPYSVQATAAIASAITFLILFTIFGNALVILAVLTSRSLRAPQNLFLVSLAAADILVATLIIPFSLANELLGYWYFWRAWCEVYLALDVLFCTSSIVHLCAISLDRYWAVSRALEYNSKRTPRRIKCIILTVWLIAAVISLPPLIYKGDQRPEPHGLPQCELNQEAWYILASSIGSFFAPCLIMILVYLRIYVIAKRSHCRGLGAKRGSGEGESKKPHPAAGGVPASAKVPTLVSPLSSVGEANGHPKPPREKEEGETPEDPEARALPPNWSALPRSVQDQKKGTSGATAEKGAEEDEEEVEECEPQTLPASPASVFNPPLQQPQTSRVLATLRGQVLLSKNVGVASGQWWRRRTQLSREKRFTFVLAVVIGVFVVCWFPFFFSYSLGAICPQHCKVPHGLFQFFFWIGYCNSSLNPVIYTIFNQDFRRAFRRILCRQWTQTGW
# Assay: FLIPR calcium flux assay in HEK 293 m α2B/Gqi5 cells (Fluo-4 dye)
# Format: cell-based
# Conditions: for activity (ratio of peak height divided by background fluorescence): FIGS. 3A-3C, room temperature, 1 to 10^4 nM, 384 well, FLIPR buffer without HEPES, commercial screening company
# Excerpt: This example describes the methodology used in assaying compounds for the ability to modulate the α2B receptor in a high throughput assay format in which the “readout” is the measurement of a change in intracellular calcium flux due to the use of the “promiscuous” Gqi5 hybrid G-protein, linking the α2B receptor (normally coupled to the adenylyl cyclase pathway) to the PLC pathway. Changes in intracellular calcium flux are monitored using a dye that becomes fluorescent when it binds free Ca^++ ion.
# HEK 293 cells are stably co-transfected with two plasmids, the first encoding the mouse alpha 2B receptor (m α2B), and the second encoding the hybrid Gqi5 protein. […] The nucleotide sequence encoding the human Gqi5 protein is contained in the reference Aiyar et al., Human AT1 receptor is a single copy gene: characterization in a stable cell line. Mol. Cell. […] These references are hereby all incorporated by reference herein. […]
# Each well of cells (in a 96 well microtiter dish) is assayed for activity in the FLIPR assay using the Fluo-4® calcium indicator dye to detect calcium flux. The structure of this dye, which can be purchased from Molecular Probes, Inc., is as follows:
# The cells are loaded with this dye using the manufacturer's recommendations, and washed 3× with FLIPR Buffer. Assays are conducted at room temperature (unless otherwise indicated in the following examples). […] Only cells releasing Ca++ into the cytosol of the cells (thereby permitting Ca++ binding to the Fluo-4 dye) will have increased fluorescent emission at 520 nm.
# Images of the illuminated cells are captured with a charge-coupled device (CCD) camera; CCD technology is adapted for producing high-resolution images in conditions of ultra low light. Images are collected at the rate of 60 images/minute (1 image per second) in each well. After 10 seconds, 50 μl of the test compound is pipetted into the well, and further images are collected at 1 second intervals for an additional 60 seconds, then at 15 second intervals for 4 minutes. Test compounds are prepared from 10^-2 M stocks in DMSO. Compounds are diluted in the FLIPR buffer to a final DMSO concentration of about 1%.
# All images are stored on a computer hard drive for later retrieval and analysis.
# [1] = FIG. 2, second experiment, 35° C., norepinephrine standard
# [2] = FIG. 1, assay carried out at 35° C., 96 well
Compound,"EC50 (FIG. 2, second experiment, 35° C., 96 well)",relative efficacy [1],"EC50 (32° C., FIG. 4B)","relative efficacy (32° C., FIG. 4B)","EC50 (35° C., FIG. 4C)","relative efficacy (35° C., FIG. 4C)","EC50 (37° C., FIG. 4D)","relative efficacy (37° C., FIG. 4D)",EC50 [2],relative efficacy compared to a norepinephrine standard [2],activity (ratio of peak height divided by background fluorescence),"EC50 (Room Temp., FIG. 4A)","relative efficacy (Room Temp., FIG. 4A)"
O=C1C2=C(CCCC2)CCC1CC1CN=CN1 (centres unmarked) [Compound 3],129 nM,31%,–,–,–,–,–,–,–,–,–,–,–
c1ncc(CC2CCC3=C(CCCC3)C2)[nH]1 (centres unmarked) [Compound 1],–,–,302 nM,30%,321 nM,40%,67 nM,40%,238 nM,40%,do not show activity to any significant degree,305 nM,12%
"COc1ccccc1N1CCN(CCN2C(=O)c3ccccc3C(C)(C)C2=O)CC1 [ARC 239, reference compound]",–,–,–,–,–,–,–,–,–,–,showed no ability to stimulate alpha 2B receptor activity,–,–
norepinephrine [reference compound],–,90%,–,–,–,–,–,–,–,–,showed an activity ratio above background; also recorded: shows activity above background,–,–
OCCNC(=S)NCc1cccc(Cl)c1F [Compound 2],–,–,337 nM,32%,318 nM,31%,65 nM,30%,242 nM,35%,shows no activity; also recorded: very modest activity only at very high concentrations; also recorded: do not show activity to any significant degree,> 1000 nM,–
